Assay results published in patent publication EP1025114B1, “3'-N-MODIFIED 6-O-SUBSTITUTED ERYTHROMYCIN KETOLIDE DERIVATIVES HAVING ANTIBACTERIAL ACTIVITY” (priority 1997, dated 1999).

Legend:
Assay in all cases: In vitro antibacterial activity, agar dilution MIC
Type in all cases: cell-based
[1] = tested on: Micrococcus luteus ATCC 9341; conditions: Micrococcus luteus ATCC 9341 (organism code OO); BHI agar, 35-37 °C, 20 to 24 hours; unit assumed
Procedure: (§1) Representative compounds of the present invention were assayed in vitro for antibacterial activity as follows: Twelve petri dishes containing successive aqueous dilutions of the test compound mixed with 10 mL of sterilized Brain Heart infusion (BHI) agar (Difco 0418-01-5) were prepared. Each plate was inoculated with 1:100 (or 1:10 for slow-growing strains, such as Micrococcus and Streptococcus) dilutions of up to 32 different microorganisms, using a Steers replicator block. […] In addition, a control plate, using BHI agar containing no test compound, was prepared and incubated at the beginning and end of each test.
(§2) An additional plate containing a compound having known susceptibility patterns for the organisms being tested and belonging to the same antibiotic class as the test compound was also prepared and incubated as a further control, as well as to provide test-to-test comparability.
(§3) After incubation, each plate was visually inspected. The minimum inhibitory concentration (MIC) was defined as the lowest concentration of drug yielding no growth, a slight haze, or sparsely isolated colonies on the inoculum spot as compared to the growth control.

[2] = tested on: Streptococcus Pheumoniae ATCC6303; conditions: Streptococcus Pheumoniae ATCC6303 (organism code XX); BHI agar, 35-37 °C, 20 to 24 hours; unit assumed
Procedure: as §1, §2, §3

[3] = tested on: Streptococcus pyogenes PIU 2548; conditions: Streptococcus pyogenes PIU 2548 (organism code NN); BHI agar, 35-37 °C, 20 to 24 hours; unit assumed
Procedure: as §1, §2, §3

[4] = tested on: Streptococcus agalactiae CMX 508; conditions: Streptococcus agalactiae CMX 508 (organism code KK); BHI agar, 35-37 °C, 20 to 24 hours; unit assumed
Procedure: as §1, §2, §3

[5] = tested on: Staphylococcus aureus NCTC10649M; conditions: Staphylococcus aureus NCTC10649M (organism code EE); BHI agar, 35-37 °C, 20 to 24 hours; unit assumed
Procedure: as §1, §2, §3

[6] = tested on: Streptococcus pyogenes 930; conditions: Streptococcus pyogenes 930 (organism code MM); BHI agar, 35-37 °C, 20 to 24 hours; unit assumed
Procedure: as §1, §2, §3

[7] = tested on: Mycobacterium smegmatis ATCC 114; conditions: Mycobacterium smegmatis ATCC 114 (organism code UU); BHI agar, 35-37 °C, 20 to 24 hours; unit assumed
Procedure: as §1, §2, §3

[8] = tested on: Staphylococcus aureus CMX 642A; conditions: Staphylococcus aureus CMX 642A (organism code DD); BHI agar, 35-37 °C, 20 to 24 hours; unit assumed
Procedure: as §1, §2, §3

[9] = tested on: Staphylococcus aureus CMX 553; conditions: Staphylococcus aureus CMX 553 (organism code FF); BHI agar, 35-37 °C, 20 to 24 hours; unit assumed
Procedure: as §1, §2, §3

[10] = tested on: Staphylococcus epidermidis 3519; conditions: Staphylococcus epidermidis 3519 (organism code HH); BHI agar, 35-37 °C, 20 to 24 hours; unit assumed
Procedure: as §1, §2, §3

[11] = tested on: Streptococcus Pheumoniae 5979; conditions: Streptococcus Pheumoniae 5979 (organism code ZZ); BHI agar, 35-37 °C, 20 to 24 hours; unit assumed
Procedure: as §1, §2, §3

Escherichia coli JUHL = Escherichia coli JUHL (organism code QQ); BHI agar, 35-37 °C, 20 to 24 hours; unit assumed
Procedure: as §1, §2, §3

[12] = tested on: Nocardia Asteroides ATCC9970; conditions: Nocardia Asteroides ATCC9970 (organism code VV); BHI agar, 35-37 °C, 20 to 24 hours; unit assumed
Procedure: as §1, §2, §3

[13] = tested on: Staphylococcus aureus 1775; conditions: Staphylococcus aureus 1775 (organism code GG); BHI agar, 35-37 °C, 20 to 24 hours; unit assumed
Procedure: as §1, §2, §3

[14] = tested on: Streptococcus Pheumoniae 5649; conditions: Streptococcus Pheumoniae 5649 (organism code ZZA); BHI agar, 35-37 °C, 20 to 24 hours; unit assumed
Procedure: as §1, §2, §3

[15] = tested on: Micrococcus luteus ATCC 4698; conditions: Micrococcus luteus ATCC 4698 (organism code PP); BHI agar, 35-37 °C, 20 to 24 hours; unit assumed
Procedure: as §1, §2, §3

[16] = tested on: Streptococcus bovis A-5169; conditions: Streptococcus bovis A-5169 (organism code JJ); BHI agar, 35-37 °C, 20 to 24 hours; unit assumed
Procedure: as §1, §2, §3

[17] = tested on: Staphylococcus aureus A5177; conditions: Staphylococcus aureus A5177 (organism code BB); BHI agar, 35-37 °C, 20 to 24 hours; unit assumed
Procedure: as §1, §2, §3

[18] = tested on: Streptococcus pyogenes EES61; conditions: Streptococcus pyogenes EES61 (organism code LL); BHI agar, 35-37 °C, 20 to 24 hours; unit assumed
Procedure: as §1, §2, §3

[19] = tested on: Enterococcus faecium ATCC 8043; conditions: Enterococcus faecium ATCC 8043 (organism code II); BHI agar, 35-37 °C, 20 to 24 hours; unit assumed
Procedure: as §1, §2, §3

Escherichia coli SS = Escherichia coli SS (organism code RR); BHI agar, 35-37 °C, 20 to 24 hours; unit assumed
Procedure: as §1, §2, §3

Escherichia coli DC-2 = Escherichia coli DC-2 (organism code SS); BHI agar, 35-37 °C, 20 to 24 hours; unit assumed
Procedure: as §1, §2, §3

[20] = tested on: Haemophilis Influenzae DILL AMP R; conditions: Haemophilis Influenzae DILL AMP R (organism code WW); BHI agar, 35-37 °C, 20 to 24 hours; unit assumed
Procedure: as §1, §2, §3

[21] = tested on: Staphylococcus aureus A-5278; conditions: Staphylococcus aureus A-5278 (organism code CC); BHI agar, 35-37 °C, 20 to 24 hours; unit assumed
Procedure: as §1, §2, §3

[22] = tested on: Streptococcus Pheumoniae GYR 1171; conditions: Streptococcus Pheumoniae GYR 1171 (organism code YY); BHI agar, 35-37 °C, 20 to 24 hours; unit assumed
Procedure: as §1, §2, §3

[23] = tested on: Staphylococcus aureus ATCC 6538P; conditions: Staphylococcus aureus ATCC 6538P (organism code AA); BHI agar, 35-37 °C, 20 to 24 hours; unit assumed
Procedure: as §1, §2, §3

Candida albicans CCH 442 = Candida albicans CCH 442 (organism code TT); BHI agar, 35-37 °C, 20 to 24 hours; unit assumed
Procedure: as §1, §2, §3

Row | SMILES | MIC [1] [µg/mL] | MIC [2] [µg/mL] | MIC [3] [µg/mL] | MIC [4] [µg/mL] | MIC [5] [µg/mL] | MIC [7] [µg/mL] | MIC [8] [µg/mL] | MIC [9] [µg/mL] | MIC [10] [µg/mL] | MIC [11] [µg/mL] | MIC (Escherichia coli JUHL) [µg/mL] | MIC [12] [µg/mL] | MIC [13] [µg/mL] | MIC [14] [µg/mL] | MIC [15] [µg/mL] | MIC [16] [µg/mL] | MIC [17] [µg/mL] | MIC [18] [µg/mL] | MIC [19] [µg/mL] | MIC (Escherichia coli SS) [µg/mL] | other results
1 | CC[C@H]1OC(=O)[C@H](C)C(=O)[C@H](C)[C@@H](O[C@@H]2O[C@H](C)C[C@H](NC)[C@H]2OC(C)=O)[C@](C)(OCC=Cc2cnc3ccccc3c2)C[C@@H](C)C(=O)[C@H](C)[C@H]2NC(=O)O[C@@]21C [Example 2, Compound of formula (II), R is -CH2CH=CH-(3-quinolyl), R^p is acetyl, R^1 is H, R^2 is CH3, W is absent, R^w is H] | 0.02 | 0.03 | 0.39 | ≤ 0.005 | 0.2 | 3.1 | 0.2 | 0.2 | 0.2 | 128 | > 100 | 1.56 | > 100 | 0.5 | 0.1 | ≤ 0.005 | 0.2 | ≤ 0.005 | 0.05 | 0.39 | MIC [6]: 25 µg/mL; MIC (Escherichia coli DC-2): > 100 µg/mL; MIC [20]: 16 µg/mL; MIC [21]: > 100 µg/mL; MIC [22]: 0.03 µg/mL; MIC [23]: 0.2 µg/mL; MIC (Candida albicans CCH 442): > 100 µg/mL
2 | CC[C@H]1OC(=O)[C@H](C)C(=O)[C@H](C)[C@@H](O[C@@H]2O[C@H](C)C[C@H](NC)[C@H]2O)[C@](C)(OCC=Cc2cnc3ccccc3c2)C[C@@H](C)C(=O)[C@H](C)[C@H]2NC(=O)O[C@@]21C [Example 3, Compound of Formula (II); R is -CH2CH=CH-(3-quinolyl), R^p is H, W is absent, R^w is H, R^1 is H, R^2 is CH3-] | 0.02 | 0.03 | 0.39 | 0.02 | 0.39 | 12.5 | 0.39 | 0.39 | 0.39 | > 128 | > 100 | 3.1 | > 100 | 0.5 | 0.1 | 0.01 | 0.2 | 0.01 | 0.2 | 0.78 | MIC [6]: 12.5 µg/mL; MIC (Escherichia coli DC-2): > 100 µg/mL; MIC [20]: 16 µg/mL; MIC [21]: > 100 µg/mL; MIC [22]: 0.03 µg/mL; MIC [23]: 0.2 µg/mL; MIC (Candida albicans CCH 442): > 100 µg/mL
3 | CC[C@H]1OC(=O)[C@H](C)C(=O)[C@H](C)[C@@H](O[C@@H]2O[C@H](C)C[C@H](N(C)C(C)=O)[C@H]2O)[C@](C)(OCC=Cc2cnc3ccccc3c2)C[C@@H](C)C(=O)[C@H](C)[C@H]2NC(=O)O[C@@]21C [Example 4, Compound of Formula (II); R is -CH2CH=CH-(3-quinolyl), R^P is H, W is absent, R^w is H, R^1 is acetyl, R^2 is CH3-] | 0.39 | 0.25 | 1.56 | 0.39 | 6.2 | 25 | 6.2 | 6.2 | 6.2 | 128 | > 100 | 12.5 | > 100 | 0.25 | 3.1 | 0.2 | 6.2 | 0.39 | 1.56 | 100 | MIC (Escherichia coli DC-2): > 100 µg/mL; MIC [20]: > 128 µg/mL; MIC [21]: > 100 µg/mL; MIC [22]: 0.125 µg/mL; MIC [23]: 6.2 µg/mL; MIC (Candida albicans CCH 442): > 100 µg/mL
4 | CCOC(=O)CN(C)[C@H]1C[C@@H](C)O[C@@H](O[C@@H]2[C@@H](C)C(=O)[C@@H](C)C(=O)O[C@H](CC)[C@@]3(C)OC(=O)N[C@@H]3[C@@H](C)C(=O)[C@H](C)C[C@@]2(C)OCC=Cc2cnc3ccccc3c2)[C@@H]1O [Example 5, Compound of Formula (II); R is -CH2CH=CH-(3-quinolyl), R^p is H, W is absent, R^w is H, R^1 is CH2C(O)-O-CH2CH3, R^2 is CH3.] | 0.78 | 0.25 | 6.2 | 1.56 | 12.5 | 25 | 12.5 | 12.5 | 12.5 | > 128 | > 100 | 25 | > 100 | 2 | 6.2 | 1.56 | 12.5 | 0.39 | 6.2 | 25 | MIC [6]: > 100 µg/mL; MIC (Escherichia coli DC-2): > 100 µg/mL; MIC [20]: 128 µg/mL; MIC [21]: > 100 µg/mL; MIC [22]: 0.25 µg/mL; MIC [23]: 6.2 µg/mL; MIC (Candida albicans CCH 442): > 100 µg/mL
5 | CC[C@H]1OC(=O)[C@H](C)C(=O)[C@H](C)[C@@H](O[C@@H]2O[C@H](C)C[C@H](N(C)Cc3cccnc3)[C@H]2O)[C@](C)(OCC=Cc2cnc3ccccc3c2)C[C@@H](C)C(=O)[C@H](C)[C@H]2NC(=O)O[C@@]21C [Example 14, Compound of Formula (II); R is -CH2CH=CH-(3-quinolyl), R^p is H, W is absent, R^w is H, R^1 is CH2-(3-pyridyl), R^2 is CH3] | 0.05 | 0.03 | 0.39 | 0.2 | 0.39 | 0.39 | 0.39 | 0.39 | 0.39 | > 128 | > 100 | 0.2 | > 100 | 0.25 | 0.39 | 0.05 | 0.39 | 0.05 | 0.05 | 0.78 | MIC [6]: 50 µg/mL; MIC (Escherichia coli DC-2): > 100 µg/mL; MIC [21]: > 100 µg/mL; MIC [22]: 0.03 µg/mL; MIC [23]: 0.39 µg/mL; MIC (Candida albicans CCH 442): > 100 µg/mL
